# Several values for one entry are separate records, joined by “and”; a condition that tells them apart may be missing. Equal values may be shown once.
# How the values were obtained:
# lung cancer = details: 1994 ATBC RCT; cited from earlier work
# [1] = test system: acute ischemia stroke (AIS) and/or ALS; details: approved for acute ischemia stroke (AIS) and/or ALS; cited from earlier work
# [2] = test system: Wistar rat cataract model induced by sodium selenite; assay: Lens opacity score (slit lamp) in sodium selenite-induced cataract rat model; format: in vivo; parameters: lens opacity score, Mean / lens opacity score / lens opacity score, raw data per eye (OD/OS, rats 1-6): scale not given here; details: G1, 0.8 mg/15 mL, 10 μl 3 times/day
# Experimental: A new batch of eye drops solutions was prepared every week. Placebo was a solution that contained the same excipients but without the drug compound. The eye drops solutions were prepared as follows:
# 3. An illustrative procedure: To a 250 mL volume flask were added 25 mg each of the excipients, sodium borate, boric acid, sodium chloride, and potassium chloride, an aspirin mimetic drug compound to be tested (e.g., DPL-004, 9.0 mg), and about 200 ml of sterilized water to form a mixture. The resultant mixture was shaken well to dissolve solids; and more sterilized water was added to bring the volume of solution to 250 mL, which was shaken well and then distributed into small portions. Each portion was labeled with a concentration of 3.6 mg/100 mL and the preparation date and was stored in a refrigerator for future use.
# 4. Eye drops solutions comprising DPL-004 at a concentration of 36 mg/100 mL and 12 mg/100 mL were prepared similarly according to the above procedure by using 90 mg and 30 mg of DPL-004, respectively, while maintaining the same amounts of excipients as shown above.
# (§1) At the age of 11-12 days after birth, all suckling rats underwent a single intraperitoneal injection of sodium selenite (30 μmol/kg, i.e., 0.1 ml/10 g) for model-building. Sodium selenite solution was configured with normal saline at a concentration of 3 mM.
# (§2) At the age of 19 days after birth (D-1) of the suckling rats, 30 lens opacities were selected for a cloudy rating at Class 4 or 5; Wister suckling rats were randomly divided into 5 groups (G1-G5 groups, 6 in each group); and a cage of suckling rats as G6 was randomly selected after the animals opened their eyes (14-16 days of age).
# (§3) The subject suckling rats of groups G1 to G5 were treated at the age of 20 days after birth (D1), and the specific dosing information is shown in Table 1. Treatment in the G6 group was conducted after the animals opened their eyes (14-16 days old, D-6-D-4), and the specific dosing information is shown in Table 1.
# At D-1, in the fourth week of treatment, the slit lamp was used at the end of administration to observe the turbidity of the lens and grade it, and the grading and scoring criteria are shown in the following Table 2.
# [3] = Body weight of rats in the cataract model study; format: in vivo, rat; details: G1, 0.8 mg/15 mL, 10 μl 3 times/day
# Experimental: as §1, §2, §3
# [4] = General clinical observations during 60-day eye drop administration; format: in vivo, rat; details: eye drops 3 times/day, 60-day administration phase, all concentrations
# From the text: as §2
# prostate cancer = details: 2008 SELECT RCT; cited from earlier work
# [5] = pH about 6.4, day -1 (before administration)
smiles,measurement,setting,value
"CC1=C(/C=C/C(C)=C/C=C/C(C)=C/C=C/C=C(C)/C=C/C=C(C)/C=C/C2=C(C)CCCC2(C)C)C(C)(C)CCC1 [Beta-carotene only, Beta-carotene]",Adverse Effects: more lung cancer,lung cancer,18% more lung
CC1=NN(c2ccccc2)C(=O)C1 [Edaravone],efficacy (marginal),[1],5%
"O=C(O)c1cc(O)c2c3nc4ccccc4oc-3cc(=O)c2n1 [Pirenoxine, reference compound]","lens opacity score, Mean","[2]; pH about 6.4, day 28",3.42
same,"lens opacity score, raw data per eye (OD/OS, rats 1-6)","[2]; pH about 6.4, day 28",3 and 4
same,"lens opacity score, Mean","[2]; pH about 6.4, day 60",2.92
same,"lens opacity score, raw data per eye (OD/OS, rats 1-6)","[2]; pH about 6.4, day 60",2 and 4 and 3
same,"lens opacity score, Mean",[2]; [5],4.00
same,"lens opacity score, raw data per eye (OD/OS, rats 1-6)",[2]; [5],4
same,"Body Weight, Mean","[3]; pH about 6.4, day 4",57.07 g
same,"Body Weight, Mean","[3]; pH about 6.4, day 11",96.02 g
same,"Body Weight, Mean","[3]; pH about 6.4, day 18",133.87 g
same,"Body Weight, Mean","[3]; pH about 6.4, day 25",163.00 g
same,"Body Weight, Mean","[3]; pH about 6.4, day 32",197.18 g
same,"Body Weight, Mean","[3]; pH about 6.4, day 39",219.45 g
same,"Body Weight, Mean","[3]; pH about 6.4, day 46",239.75 g
same,"Body Weight, Mean","[3]; pH about 6.4, day 53",255.82 g
same,"Body Weight, Mean","[3]; pH about 6.4, day 60",270.00 g
same,"Body Weight, Mean",[3]; [5],43.48 g
same,"abnormal symptoms (activity status, body weight, skin hair, secretion morphology and color)",[4],no abnormal symptoms
Cc1c(C)c2c(c(C)c1O)CC[C@@](C)(CCC[C@H](C)CCC[C@H](C)CCCC(C)C)O2 [Vitamin E],Adverse Effects: more prostate cancer,prostate cancer,17% more prostate

# Reference: patent US11826355B1, “Aspirin-mimetic antioxidants for treatment of age-related cataract” (priority 2022, dated 2023)
